Measured values from patent US20260174874A1, “INSULIN DERIVATIVES” (USTAV ORGANICKE CHEMIE A BIOCHEMIE AKADEMIE VED CR, V. V. I., priority 2022, published 2026).
Values joined by “and” are separate entries in the source; they are usually repeats but may differ in a detail not shown here. Identical values can stand only once. Like-named read-outs stand apart in the source and are kept apart here. Marks after values point to notes of the source that are not given here.

Legend:
IR-A = IR-A (Homo sapiens, UniProt P06213); conditions: published; (Kd of native hormone/Kd of derivative) × 100; cited from earlier work
IGF-1R [1] = molecular target: T1, IGF-1R (Homo sapiens, UniProt P08069); test: competition with 125I-IGF-1 on mouse fibroblasts transfected with human IGF-1R; relative to human insulin
IR-B = IR-B (Homo sapiens, UniProt P06213); conditions: published; (Kd of native hormone/Kd of derivative) × 100; cited from earlier work
IGF-1R [2] = molecular target: T1, IGF-1R; conditions: cited from earlier work
SH-SY5Y cells = test: Protection of SH-SY5Y cells against methylglyoxal toxicity (MTT assay); type: cell-based; conditions: methylglyoxal 1.5 mmol·l-1, SY5Y cells
[3] = published, (Kd of native hormone/Kd of derivative) × 100

Chain of IR-A (P06213 28-1370 isoform P06213-2 limits assumed): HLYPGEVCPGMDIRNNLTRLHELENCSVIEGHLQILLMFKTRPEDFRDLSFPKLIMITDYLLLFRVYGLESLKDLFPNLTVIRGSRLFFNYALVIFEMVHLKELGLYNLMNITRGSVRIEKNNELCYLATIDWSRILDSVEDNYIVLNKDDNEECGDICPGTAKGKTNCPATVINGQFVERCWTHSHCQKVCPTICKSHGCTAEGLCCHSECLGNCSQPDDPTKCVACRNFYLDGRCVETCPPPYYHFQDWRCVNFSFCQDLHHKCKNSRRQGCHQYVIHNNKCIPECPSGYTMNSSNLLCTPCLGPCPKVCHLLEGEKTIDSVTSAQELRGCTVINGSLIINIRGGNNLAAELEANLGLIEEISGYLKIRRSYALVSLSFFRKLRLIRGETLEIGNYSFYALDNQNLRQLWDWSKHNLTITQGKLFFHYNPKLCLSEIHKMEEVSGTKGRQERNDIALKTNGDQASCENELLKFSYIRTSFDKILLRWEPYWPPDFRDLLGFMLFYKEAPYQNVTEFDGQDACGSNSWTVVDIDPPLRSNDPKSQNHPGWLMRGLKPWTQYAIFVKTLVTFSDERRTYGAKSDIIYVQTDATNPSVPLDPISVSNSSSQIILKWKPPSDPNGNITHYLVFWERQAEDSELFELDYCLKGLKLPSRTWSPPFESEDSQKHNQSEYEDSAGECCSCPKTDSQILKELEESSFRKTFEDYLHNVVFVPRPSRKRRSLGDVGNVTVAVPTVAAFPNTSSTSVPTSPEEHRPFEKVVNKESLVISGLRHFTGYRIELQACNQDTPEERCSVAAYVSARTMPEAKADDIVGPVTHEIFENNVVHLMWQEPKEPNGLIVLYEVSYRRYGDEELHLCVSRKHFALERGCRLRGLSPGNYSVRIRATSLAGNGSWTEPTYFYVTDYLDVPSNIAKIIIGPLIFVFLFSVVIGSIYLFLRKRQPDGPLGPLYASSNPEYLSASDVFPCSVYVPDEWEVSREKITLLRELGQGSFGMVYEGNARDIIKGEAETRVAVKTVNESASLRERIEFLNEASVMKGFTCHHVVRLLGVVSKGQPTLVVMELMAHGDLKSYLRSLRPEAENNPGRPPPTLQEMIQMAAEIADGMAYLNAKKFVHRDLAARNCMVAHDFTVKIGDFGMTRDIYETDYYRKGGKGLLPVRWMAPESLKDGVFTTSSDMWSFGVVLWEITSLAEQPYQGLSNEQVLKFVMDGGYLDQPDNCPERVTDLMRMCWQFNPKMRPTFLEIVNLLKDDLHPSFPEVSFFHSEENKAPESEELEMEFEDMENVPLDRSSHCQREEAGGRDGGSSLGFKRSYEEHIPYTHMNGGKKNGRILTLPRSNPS
Chain of IR-A (P06213 763-1382 limits assumed): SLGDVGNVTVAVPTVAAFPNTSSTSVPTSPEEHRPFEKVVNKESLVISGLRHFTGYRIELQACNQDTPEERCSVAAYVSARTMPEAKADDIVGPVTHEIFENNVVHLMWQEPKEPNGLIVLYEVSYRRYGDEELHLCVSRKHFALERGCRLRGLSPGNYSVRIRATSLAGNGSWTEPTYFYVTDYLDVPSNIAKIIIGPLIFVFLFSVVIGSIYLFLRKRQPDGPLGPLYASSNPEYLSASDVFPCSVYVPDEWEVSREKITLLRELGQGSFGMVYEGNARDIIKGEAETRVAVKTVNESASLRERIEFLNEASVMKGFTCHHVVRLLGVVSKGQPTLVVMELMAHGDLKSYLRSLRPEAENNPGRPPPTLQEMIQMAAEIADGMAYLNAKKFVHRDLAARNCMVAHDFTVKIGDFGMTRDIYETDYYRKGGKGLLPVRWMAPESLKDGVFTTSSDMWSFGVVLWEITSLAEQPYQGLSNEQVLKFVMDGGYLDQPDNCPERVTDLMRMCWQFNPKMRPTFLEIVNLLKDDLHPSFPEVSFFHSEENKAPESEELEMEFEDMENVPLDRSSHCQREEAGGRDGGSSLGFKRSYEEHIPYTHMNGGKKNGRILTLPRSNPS
Chain of IR-B (P06213 28-758 limits assumed): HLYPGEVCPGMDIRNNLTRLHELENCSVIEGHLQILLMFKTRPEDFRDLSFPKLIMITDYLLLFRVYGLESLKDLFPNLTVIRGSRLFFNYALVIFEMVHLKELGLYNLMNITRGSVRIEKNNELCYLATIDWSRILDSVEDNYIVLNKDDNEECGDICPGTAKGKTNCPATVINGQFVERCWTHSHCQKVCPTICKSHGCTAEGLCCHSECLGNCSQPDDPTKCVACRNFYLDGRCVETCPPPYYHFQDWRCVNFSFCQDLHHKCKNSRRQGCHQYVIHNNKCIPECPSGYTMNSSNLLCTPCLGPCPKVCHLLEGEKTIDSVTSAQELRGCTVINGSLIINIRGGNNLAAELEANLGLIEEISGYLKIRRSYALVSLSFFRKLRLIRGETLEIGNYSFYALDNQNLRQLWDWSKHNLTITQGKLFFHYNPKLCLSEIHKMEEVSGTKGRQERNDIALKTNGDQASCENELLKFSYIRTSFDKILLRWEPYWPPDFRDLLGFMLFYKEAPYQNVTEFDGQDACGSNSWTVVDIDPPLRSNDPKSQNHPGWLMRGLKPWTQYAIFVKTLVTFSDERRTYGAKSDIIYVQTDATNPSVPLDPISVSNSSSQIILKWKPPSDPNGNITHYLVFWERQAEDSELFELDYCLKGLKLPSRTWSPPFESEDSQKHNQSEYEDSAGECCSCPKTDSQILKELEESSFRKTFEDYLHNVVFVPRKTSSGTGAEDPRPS
Chain of IR-B (P06213 763-1382 limits assumed): as the sequence (P06213 763-1382 limits assumed) above
Chain of IN-ML-15 (GluB10, D-HisB24, GlyB31, TyrB32-insulin) (ligand) (chain): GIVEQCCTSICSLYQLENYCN
Chain of IN-ML-15 (GluB10, D-HisB24, GlyB31, TyrB32-insulin) (ligand) (chain): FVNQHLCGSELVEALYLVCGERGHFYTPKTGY

Compound | Relative binding affinity for IR-A (%) (IR-A) | Relative binding affinity for IR-B (%) (IR-B) | Relative binding affinity for IGF-1R (%) (IGF-1R [2]; [3]) | other results
D-PheB24-insulin | 180% |  |  | 
IN-ML-15 (GluB10, D-HisB24, GlyB31, TyrB32-insulin) (ligand) |  |  |  | times more potent than insulin (IGF-1R [1]): 790 times
D-HisB24, GlyB31, TyrB32-insulin | 251% | 338% | 12% and 12.4% | 
CC(=O)C=O [Methylglyoxal, methylglyoxal] |  |  |  | amount of cells grown in the wells compared with the control (SH-SY5Y cells): 50-60%
GluB10-insulin | 407% |  |  | 
AspB10-insulin | 206% |  |  | Relative binding affinity for IGF-1R (%) (IGF-1R [2]; Converted from Schaffer data): 0.2* %
D-AlaB24-insulin | 150% |  |  | 
GlyB31, TyrB32-insulin | 162% | 310% | 0.27% | 
D-HisB24-insulin | 280% | 250% | 1.0% | 
D-ProB24-insulin | 1.3% |  |  | 
